B1: Ii Hook: previously described Invariant chain-based Hook: streptavidin fused to human invariant chain Ii (Boncompain et al. 2012) (protein)
chain: MHRRRSRSCREDQKPVMDDQRDLISNNEQLPMLGRRPGAPESKCSRGALYTGFSILVTLLLAGQATTAYFLYQQQGRLDKLTVTSQNLQLENLRMKLPKPPKPVSKMRMATPLLMQALPMGALPQGPMQNATKYGNMTEDHVMHLLQNADPLKVYPPLKGSFPENLRHLKNTMETIDWKVFESWMHHWLLFEMSRHSLEQKPTDAPPKESLELEDPSSGLGVTKQDLGPVPM
modifications: left off: large carriers

Experiments:
Type in all cases: cell-based
[1] = test system: scFv (CD19)-GFP-DAP10CD3-sSBP; assay: Time course release using biotin (RUSH traffic) with soluble mini hook; details: HeLa cells, addition of biotin
Protocol: (§1) HeLa cells were cultivated at 37° C. and 5% of CO2 in Dulbecco's modified Eagle medium (DMEM) supplemented with 10%1-BS (Biowest), 1 mM sodium Pyruvate and […] of penicillin and streptomycin (Invitrogen). HeLa cells were transfected with the plasmid of interest using Calcium phosphate protocol in the presence of 25 mM of HEPES. Briefly, the plasmids coding the sequence of CAR based RUSH such as CD3-SBP-NKG2D (SEQ ID NO: 13), scFv(CD19)-GFP-DAP10CD3-sSBP (SEQ ID NO: 23), scFv(CD19)-GFP-DAP10-SBPdel (SEQ ID NO: 24), scFv(CD19)-mycDAP10-SBP (SEQ ID NO: 25) or BACE1-SBP-EGFP (SEQ ID NO: 26) (2.5 ug per 1 mL of final volume) were add to 1 mM tris-HCl pH 8.02 buffer followed by the addition of 10% of CaCl2 and incubated for 5 min (RT). Then this mix was add drop by drop into 2× concentrate HEBS buffer (160 mM NaCl, 1.5 mM Na2HPO4, 50 mM Hepes PH 7.04-7.05) while vortexing. The cells were incubated with this solution overnight at 37° C. and 5% of CO2.
(§2) The cells were seeded into a glass coverslips for fixed cell immunofluorescence and/or live imaging. In the next day the cells were transfected with the plasmids coding the construct of interest as previously described. For the steady state of the protein/construct, 40 μM final concentration of biotin was added (4 mM stock solution) just after addition of the transfection solution. […]

[2] = test system: scFv (CD19)-GFP-DAP10-sSBP; assay: as above; details: HeLa cells, addition of biotin
Protocol: as §1, §2

scFvCD19-Myc-DAP10-sSBP = assay: Time course release using biotin (RUSH traffic, immunofluorescence) with Str-endoKKXX hook; details: HeLa cells, addition of biotin (40 μM)
Protocol: as §1, §2

[3] = test system: BACE1-GFP-SBP (BACE1-RUSH); assay: Retention, ALiS-1 release and wash-out retrieval from the cell surface; details: HeLa cells
Protocol: as §1
Biotin-mimetic molecule ALiS-1 was prepared in DMSO to 20 mM (stock solution) and the cells were treated with 40 μM final concentration to prevent the interaction between the reporter (target membrane protein) and the hook.
Cells coated in the coverslips were washed once in 1×PBS buffer, fixed in 3% of paraformaldehyde (PFA) (10-15 min, RT), washed (2×) and incubated with 50 mM of NH4Cl (5 min, RT) to quench free aldehydes. […]

Molecule	release of reporter from the hook [1]	release of reporter from the hook [2]	release of reporter from the hook (scFvCD19-Myc-DAP10-sSBP)	localization of reporter ([3]; absence of releasing molecule (without biotin))	retrieval of cell surface reporter back to the ER ([3]; washing-out ALiS-1 for 1 hour)
O=C(O)CCCC[C@@H]1SC[C@@H]2NC(=O)N[C@@H]21 [biotin]	leads to the release	leads to the release	released	–	–
B1	–	–	–	retained in the ER	does not allow to capture cell surface localized BAC1-RUSH

From patent US12252517B2, “Hook fusion protein for regulating the cellular trafficking of a target protein” (INSTITUT CURIE, priority 2017, dated 2025)
